Positions of bridges follow the written chain, without caps; N, C: chain ends. Non-standard residues stand in square brackets, D forms with d. Residues, ends and D or L forms follow the SMILES beside them. *: point of attachment. Trp(1-CH2COOH) = N[C@@H](Cc1cn(CC(=O)O)c2ccccc12)C(=O)O; Nle(6-morpholino) = N[C@@H](CCCCN1CCOCC1)C(=O)O; NMePhe(3-Cl) = CN[C@@H](Cc1cccc(Cl)c1)C(=O)O; NMeY = CN[C@@H](Cc1ccc(O)cc1)C(=O)O; PEG4 = NCCOCCOCCOCCOCCC(=O)O; Carboxymethyl = O=C(O)C*
molecular target: T1, human transferrin receptor (hTfR) (Homo sapiens, UniProt P02786); experiment: Evaluation of molecular interaction between transferrin receptor (hTfR) and peptide using surface plasmon resonance (SPR); format: binding; settings: KD class for binding to hTfR by SPR; peptide with the linker shown in the same line; 'low signal indicates no activity'; read-out: SPR
T1 construct: made in house
Outline: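 KD values are derived by least-squares fitting of single-cycle kinetic sensorgrams. Peptide series (5–100 nM) flows over recombinant hTfR dimer immobilized on a Ni-NTA chip by EDC/NHS coupling, in pH 8.0 HEPES buffer containing 0.1% BSA and 1.0% DMSO.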

T1 sequence (P02786 89-760 limits assumed): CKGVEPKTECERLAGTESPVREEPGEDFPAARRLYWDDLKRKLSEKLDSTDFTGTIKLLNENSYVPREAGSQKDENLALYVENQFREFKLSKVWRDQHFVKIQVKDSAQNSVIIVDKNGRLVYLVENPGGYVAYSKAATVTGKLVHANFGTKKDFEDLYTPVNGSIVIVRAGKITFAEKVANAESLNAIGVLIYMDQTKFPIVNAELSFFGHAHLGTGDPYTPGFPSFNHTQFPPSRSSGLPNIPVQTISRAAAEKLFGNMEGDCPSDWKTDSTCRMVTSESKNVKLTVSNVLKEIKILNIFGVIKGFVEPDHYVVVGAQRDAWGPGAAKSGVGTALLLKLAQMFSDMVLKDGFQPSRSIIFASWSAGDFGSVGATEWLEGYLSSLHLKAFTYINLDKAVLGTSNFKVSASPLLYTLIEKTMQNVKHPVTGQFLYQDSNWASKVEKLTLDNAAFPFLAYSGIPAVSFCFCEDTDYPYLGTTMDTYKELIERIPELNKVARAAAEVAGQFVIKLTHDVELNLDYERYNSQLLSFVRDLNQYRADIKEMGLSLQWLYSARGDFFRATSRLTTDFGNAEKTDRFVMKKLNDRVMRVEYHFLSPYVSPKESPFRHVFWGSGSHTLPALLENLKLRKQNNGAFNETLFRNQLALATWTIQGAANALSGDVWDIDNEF

| SMILES | Kd |
| --- | --- |
| CC[C@H](C)[C@@H]1NC(=O)[C@H](Cc2ccc(OCC(=O)O)cc2)NC(=O)[C@H](Cc2ccc(O)cc2)NC(=O)[C@H](CC(N)=O)NC(=O)[C@H](Cc2cn(CC(=O)O)c3ccccc23)NC(=O)[C@H](C(C)C)NC(=O)[C@H](Cc2cccc(Cl)c2)N(C)C(=O)[C@H](C(C)C)NC(=O)[C@H](C)NC(=O)CSC[C@@H](C(=O)NCCOCCOCCOCCOCCC(N)=O)NC(=O)[C@H](Cc2ccc(O)cc2)N(C)C(=O)[C@H](Cc2ccccc2)NC(=O)[C@H](CCCCN2CCOCC2)NC(=O)[C@H](CCCCN2CCOCC2)NC(=O)[C@H]([C@@H](C)CC)NC1=O [894_0390] ({CH2CO}-AV[NMePhe(3-Cl)]V[Trp(1-CH2COOH)]NYY(Carboxymethyl)II[Nle(6-morpholino)][Nle(6-morpholino)]F[NMeY]C[PEG4]-NH2; thioether N-15) | < 1 nM |
| CC[C@H](C)[C@@H]1NC(=O)[C@H](Cc2ccc(O)cc2)NC(=O)[C@H](Cc2ccc(O)cc2)NC(=O)[C@H](CC(N)=O)NC(=O)[C@H](Cc2c[nH]c3ccc(Cl)cc23)NC(=O)[C@H](C(C)C)NC(=O)[C@H](Cc2ccccc2)N(C)C(=O)[C@H](C(C)C)NC(=O)[C@H](C)NC(=O)CSC[C@@H](C(=O)NCC(=O)N[C@@H](CCCCN=[N+]=[N-])C(N)=O)NC(=O)[C@H](Cc2ccc(O)cc2)N(C)C(=O)[C@H](Cc2ccccc2)NC(=O)[C@H](CCCNC(=N)N)NC(=O)[C@H](CCCNC(=N)N)NC(=O)[C@H]([C@@H](C)CC)NC1=O [894_3153] | 1 to 100 nM |
| CC[C@H](C)[C@@H]1NC(=O)[C@H](Cc2ccc(OC)cc2)NC(=O)[C@H](Cc2ccc(O)cc2)NC(=O)[C@H](CC(N)=O)NC(=O)[C@H](Cc2c[nH]c3ccc(Cl)cc23)NC(=O)[C@H](C(C)C)NC(=O)[C@H](Cc2ccccc2)N(C)C(=O)[C@H](C(C)C)NC(=O)[C@H](C)NC(=O)CSC[C@@H](C(=O)NCC(=O)N[C@@H](CCCCN=[N+]=[N-])C(N)=O)NC(=O)[C@H](Cc2ccc(O)cc2)N(C)C(=O)[C@H](Cc2ccccc2)NC(=O)[C@H](CCCNC(=N)N)NC(=O)[C@H](CCCNC(=N)N)NC(=O)[C@H]([C@@H](C)CC)NC1=O [894_3154] | 1 to 100 nM |
| CC[C@H](C)[C@@H]1NC(=O)[C@H](Cc2ccc(OC)cc2)NC(=O)[C@H](Cc2ccc(O)cc2)NC(=O)[C@H](CC(N)=O)NC(=O)[C@H](Cc2c[nH]c3ccc(Cl)cc23)NC(=O)[C@H](C(C)C)NC(=O)[C@H](Cc2ccc(F)cc2)N(C)C(=O)[C@H](C(C)C)NC(=O)[C@H](C)NC(=O)CSC[C@@H](C(=O)NCC(=O)N[C@@H](CCCCN=[N+]=[N-])C(N)=O)NC(=O)[C@H](Cc2ccc(O)cc2)N(C)C(=O)[C@H](Cc2ccccc2)NC(=O)[C@@H](CCCNC(=N)N)NC(=O)[C@H](CCCNC(=N)N)NC(=O)[C@H]([C@@H](C)CC)NC1=O [894_3157] | 100 to 1000 nM |
| CC[C@H](C)[C@@H]1NC(=O)[C@H](Cc2ccc(O)cc2)NC(=O)[C@H](Cc2ccc(O)cc2)NC(=O)[C@H](CC(N)=O)NC(=O)[C@H](Cc2c[nH]c3ccc(Cl)cc23)NC(=O)[C@H](C(C)C)NC(=O)[C@H](Cc2ccccc2)N(C)C(=O)[C@H](C(C)C)NC(=O)[C@H](C)NC(=O)CSC[C@@H](C(=O)NCC(=O)N[C@@H](CCCCN=[N+]=[N-])C(N)=O)NC(=O)[C@H](Cc2ccc(O)cc2)N(C)C(=O)[C@H](Cc2ccc(O)cc2)NC(=O)[C@H](CCCNC(=N)N)NC(=O)[C@H](CCCNC(=N)N)NC(=O)[C@H]([C@@H](C)CC)NC1=O [894_3161] | 1 to 100 nM |
| CC[C@H](C)[C@@H]1NC(=O)[C@H](Cc2ccc(OC)cc2)NC(=O)[C@H](Cc2ccc(O)cc2)NC(=O)[C@H](CC(N)=O)NC(=O)[C@H](Cc2c[nH]c3ccc(Cl)cc23)NC(=O)[C@H](C(C)C)NC(=O)[C@H](Cc2ccccc2)N(C)C(=O)[C@H](C(C)C)NC(=O)[C@H](C)NC(=O)CSC[C@@H](C(=O)NCC(=O)N[C@@H](CCCCN=[N+]=[N-])C(N)=O)NC(=O)[C@H](Cc2ccc(O)cc2)N(C)C(=O)[C@H](Cc2ccc(O)cc2)NC(=O)[C@H](CCCNC(=N)N)NC(=O)[C@H](CCCNC(=N)N)NC(=O)[C@H]([C@@H](C)CC)NC1=O [894_3162] | 1 to 100 nM |
| CC[C@H](C)[C@@H]1NC(=O)[C@H](Cc2ccc(OC)cc2)NC(=O)[C@H](Cc2ccc(O)cc2)NC(=O)[C@H](CC(N)=O)NC(=O)[C@H](Cc2c[nH]c3ccccc23)NC(=O)[C@H](C(C)C)NC(=O)[C@H](Cc2cccc(Cl)c2)N(C)C(=O)[C@H](C(C)C)NC(=O)[C@H](C)NC(=O)CSC[C@@H](C(=O)NCC(=O)N[C@@H](CCCCN=[N+]=[N-])C(N)=O)NC(=O)[C@H](Cc2ccc(O)cc2)N(C)C(=O)[C@H](Cc2ccc(O)cc2)NC(=O)[C@H](CCCNC(=N)N)NC(=O)[C@H](CCCNC(=N)N)NC(=O)[C@H]([C@@H](C)CC)NC1=O [894_3164] | 1 to 100 nM |
| CC[C@H](C)[C@@H]1NC(=O)[C@H](Cc2ccc(OC)cc2)NC(=O)[C@H](Cc2ccc(O)cc2)NC(=O)[C@H](CC(N)=O)NC(=O)[C@H](Cc2c[nH]c3ccccc23)NC(=O)[C@H](C(C)C)NC(=O)[C@H](Cc2cccc(Cl)c2)N(C)C(=O)[C@H](C(C)C)NC(=O)[C@H](C)NC(=O)CSC[C@@H](C(=O)NCC(=O)N[C@@H](CCCCN=[N+]=[N-])C(N)=O)NC(=O)[C@H](Cc2ccc(O)cc2)N(C)C(=O)[C@H](Cc2ccc(O)cc2)NC(=O)[C@H](CCCNC(=N)N)NC(=O)[C@H](CCCCN)NC(=O)[C@H]([C@@H](C)CC)NC1=O [894_3165] | 1 to 100 nM |

Further lines, results first:

| Kd | SMILES |
| --- | --- |
| 1 to 100 nM | CC[C@H](C)[C@@H]1NC(=O)[C@H](Cc2ccc(OC)cc2)NC(=O)[C@H](Cc2ccc(O)cc2)NC(=O)[C@H](CC(N)=O)NC(=O)[C@H](Cc2c[nH]c3ccc(Cl)cc23)NC(=O)[C@H](C(C)C)NC(=O)[C@H](Cc2ccccc2)N(C)C(=O)[C@H](C(C)C)NC(=O)[C@H](C)NC(=O)CSC[C@@H](C(=O)NCC(=O)N[C@@H](CCCCN=[N+]=[N-])C(N)=O)NC(=O)[C@H](Cc2ccc(O)cc2)N(C)C(=O)[C@H](Cc2ccccc2)NC(=O)[C@@H](CCCNC(=N)N)NC(=O)[C@H](CCCNC(=N)N)NC(=O)[C@H]([C@@H](C)CC)NC1=O [894_3155] |
| 1 to 100 nM | CC[C@H](C)[C@@H]1NC(=O)[C@H](Cc2ccc(OC)cc2)NC(=O)[C@H](Cc2ccc(O)cc2)NC(=O)[C@H](CC(N)=O)NC(=O)[C@H](Cc2c[nH]c3ccc(Cl)cc23)NC(=O)[C@H](C(C)C)NC(=O)[C@H](Cc2ccc(F)cc2)N(C)C(=O)[C@H](C(C)C)NC(=O)[C@H](C)NC(=O)CSC[C@@H](C(=O)NCC(=O)N[C@@H](CCCCN=[N+]=[N-])C(N)=O)NC(=O)[C@H](Cc2ccc(O)cc2)N(C)C(=O)[C@H](Cc2ccccc2)NC(=O)[C@H](CCCNC(=N)N)NC(=O)[C@H](CCCNC(=N)N)NC(=O)[C@H]([C@@H](C)CC)NC1=O [894_3156] |
| 1 to 100 nM | CC[C@H](C)[C@@H]1NC(=O)[C@H](Cc2ccc(OC)cc2)NC(=O)[C@H](Cc2ccc(O)cc2)NC(=O)[C@H](CC(N)=O)NC(=O)[C@H](Cc2c[nH]c3ccccc23)N(C)C(=O)[C@H](C(C)C)NC(=O)[C@H](Cc2ccncc2)N(C)C(=O)[C@H](C(C)C)NC(=O)[C@H](C)NC(=O)CSC[C@@H](C(=O)NCC(=O)N[C@@H](CCCCN=[N+]=[N-])C(N)=O)NC(=O)[C@H](Cc2ccc(O)cc2)N(C)C(=O)[C@H](Cc2ccccc2)NC(=O)[C@@H](CCCNC(=N)N)NC(=O)[C@H](CCCNC(=N)N)NC(=O)[C@H]([C@@H](C)CC)NC1=O [894_3158] |
| 100 to 1000 nM | CC[C@H](C)[C@@H]1NC(=O)[C@H](Cc2ccc(OC)cc2)NC(=O)[C@H](Cc2ccc(O)cc2)NC(=O)[C@H](CC(N)=O)NC(=O)[C@H](Cc2c[nH]c3ccccc23)N(C)C(=O)[C@H](C(C)C)NC(=O)[C@H](Cc2cccc(C(=O)O)c2)N(C)C(=O)[C@H](C(C)C)NC(=O)[C@H](C)NC(=O)CSC[C@@H](C(=O)NCC(=O)N[C@@H](CCCCN=[N+]=[N-])C(N)=O)NC(=O)[C@H](Cc2ccc(O)cc2)N(C)C(=O)[C@H](Cc2ccccc2)NC(=O)[C@@H](CCCNC(=N)N)NC(=O)[C@H](CCCNC(=N)N)NC(=O)[C@H]([C@@H](C)CC)NC1=O [894_3159] |
| 100 to 1000 nM | CC[C@H](C)[C@@H]1NC(=O)[C@H](Cc2ccc(O)cc2)NC(=O)[C@H](Cc2ccc(O)cc2)NC(=O)[C@H](C)NC(=O)[C@H](Cc2c[nH]c3ccccc23)NC(=O)[C@H](C(C)C)NC(=O)[C@H](Cc2ccccc2)N(C)C(=O)[C@H](C(C)C)NC(=O)[C@H](C)NC(=O)CSC[C@@H](C(=O)NCC(=O)N[C@@H](CCCCN=[N+]=[N-])C(N)=O)NC(=O)[C@H](Cc2ccc(O)cc2)N(C)C(=O)[C@H](Cc2ccc(O)cc2)NC(=O)[C@H](CCCNC(=N)N)NC(=O)[C@H](CCCNC(=N)N)NC(=O)[C@H]([C@@H](C)CC)NC1=O [894_3160] |
| 1 to 100 nM | CC[C@H](C)[C@@H]1NC(=O)[C@H](Cc2ccc(OC)cc2)NC(=O)[C@H](Cc2ccc(O)cc2)NC(=O)[C@H](CC(N)=O)NC(=O)[C@H](Cc2c[nH]c3ccc(Cl)cc23)NC(=O)[C@H](C(C)C)NC(=O)[C@H](Cc2ccc(F)cc2)N(C)C(=O)[C@H](C(C)C)NC(=O)[C@H](C)NC(=O)CSC[C@@H](C(=O)NCC(=O)N[C@@H](CCCCN=[N+]=[N-])C(N)=O)NC(=O)[C@H](Cc2ccc(O)cc2)N(C)C(=O)[C@H](Cc2ccc(O)cc2)NC(=O)[C@H](CCCNC(=N)N)NC(=O)[C@H](CCCNC(=N)N)NC(=O)[C@H]([C@@H](C)CC)NC1=O [894_3163] |
| 1 to 100 nM | CC[C@H](C)[C@@H]1NC(=O)[C@H](Cc2ccc(OC)cc2)NC(=O)[C@H](Cc2ccc(O)cc2)NC(=O)[C@H](CC(N)=O)NC(=O)[C@H](Cc2c[nH]c3ccccc23)N(C)C(=O)[C@H](C(C)C)NC(=O)[C@H](Cc2cccc(Cl)c2)N(C)C(=O)[C@H](C(C)C)NC(=O)[C@H](C)NC(=O)CSC[C@@H](C(=O)NCC(=O)N[C@@H](CCCCN=[N+]=[N-])C(N)=O)NC(=O)[C@H](Cc2ccc(O)cc2)N(C)C(=O)[C@H](Cc2ccc(O)cc2)NC(=O)[C@H](CCCNC(=N)N)NC(=O)[C@H](CCCNC(=N)N)NC(=O)[C@H]([C@@H](C)CC)NC1=O [894_3166] |
